Where a SMILES comes first, the peptide text is derived from it. Bridges are numbered along the chain shown (N, C = ends). [ ]: non-standard residue; d: D form. Cha = N[C@@H](CC1CCCCC1)C(=O)O; aThr = C[C@H](O)[C@H](N)C(=O)O; Tle = CC(C)(C)[C@H](N)C(=O)O; dDab = NCC[C@@H](N)C(=O)O; dPip = O=C(O)[C@H]1CCCCN1; Orn = NCCC[C@H](N)C(=O)O; Dab = NCC[C@H](N)C(=O)O; Dap = NC[C@H](N)C(=O)O
Tests used:
Type in all cases: cell-based
[1] = system: human red blood cells (hRBC); test: Hemolysis of human red blood cells; settings: red cells of human, 1 h, 100 μg/mL
In short: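 Fresh human red blood cells are washed in PBS, then shaken with peptide (100 μg/mL) at 37° C. for 1 h, final erythrocyte density about 0.9×10^9 cells/mL. After centrifugation, diluted supernatants are read at 540 nm against buffer (0%) and Triton X-100 (100%) lysis controls.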

[2] = system: Acinetobacter baumannii DSM 30008; settings: DSM 30008
In short: (§1)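 Antibacterial activity is measured as MIC (μg/mL) by standard CLSI microdilution. Inocula of about 10^6 CFU/mL in MH-II broth meet two-fold peptide dilutions in medium with 0.002% Polysorbate 80, and growth is scored visually after 18-20 hours at 35° C.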

[3] = system: Acinetobacter baumannii 872842; settings: 872842
[4] = system: Escherichia coli 926415; settings: 926415
[5] = system: Klebsiella pneumoniae 968733; settings: 968733
[6] = system: Escherichia coli ATCC 25922; settings: ATCC 25922
In short: as §1

[7] = system: Klebsiella pneumoniae SSI #3010; settings: SSI #3010
In short: as §1

[8] = system: Pseudomonas aeruginosa ATCC 27853; settings: ATCC 27853
In short: as §1

With `CC(=O)N[C@@H](Cc1c[nH]c2ccccc12)C(=O)N[C@H]1CSSC[C@@H](C(=O)N[C@@H](CCCN)C(=O)N[C@H](CCN)C(=O)N[C@@H](CCN)C(=O)N[C@H]2CCNC(=O)[C@H]([C@@H](C)O)NC(=O)[C@H](CCN)NC(=O)[C@H](CCN)NC(=O)[C@H](CC(C)C)NC(=O)[C@@H](Cc3ccccc3)NC(=O)[C@H](CCN)NC2=O)NC(=O)[C@H](Cc2ccc(O)cc2)NC(=O)[C@H](CN)NC(=O)[C@H](Cc2ccccc2)NC(=O)[C@H](CC(C)C)NC(=O)[C@H]2CCCN2C(=O)[C@H](CO)NC(=O)[C@H](C)NC(=O)[C@H](C(C)(C)C)NC1=O` [Ex. 110] (Ac-WC[Tle]AS[dP]LF[Dap]YC[Orn][dDab][Dab][Dab][Dab][dF]L[Dab][Dab]T; disulfide 2-11; lactam 15-C) the “Hemolysis at 100 μg/mL” value [1] was 2%, the “Acinetobacter baumannii DSM 30008 MIC” value [2] was 0.25 µg/mL and the “Acinetobacter baumannii 872842 MIC” value [3] was 0.25 µg/mL. The “Escherichia coli 926415 MIC” value [4] was 0.25 µg/mL, the “Klebsiella pneumoniae 968733 MIC” value [5] was 2 µg/mL and the “Escherichia coli ATCC 25922 MIC” value [6] was 0.5 µg/mL. The “Klebsiella pneumoniae SSI #3010 MIC” value [7] was 0.5 µg/mL and the “Pseudomonas aeruginosa ATCC 27853 MIC” value [8] was 1 µg/mL.

In the case of `CC(=O)N[C@@H](Cc1c[nH]c2ccccc12)C(=O)N[C@H]1CSSC[C@@H](C(=O)N[C@@H](CCCN)C(=O)N[C@H](C(=O)N[C@@H](CCN)C(=O)N[C@H]2CCNC(=O)[C@H]([C@@H](C)O)NC(=O)[C@H](CCN)NC(=O)[C@H](CCN)NC(=O)[C@H](CC(C)C)NC(=O)[C@@H](Cc3ccccc3)NC(=O)[C@H](CCN)NC2=O)[C@@H](C)O)NC(=O)[C@H](Cc2ccc(O)cc2)NC(=O)[C@H](CO)NC(=O)[C@H](CC(C)C)NC(=O)[C@@H]2CCCN2C(=O)[C@H]2CCCN2C(=O)[C@H](CO)NC(=O)[C@H](C)NC(=O)[C@H](Cc2c[nH]c3ccccc23)NC1=O` [Ex. 111] (Ac-WCWAS[dP]PLSYC[Orn]T[Dab][Dab][Dab][dF]L[Dab][Dab]T; disulfide 2-11; lactam 15-C), the “Hemolysis at 100 μg/mL” value [1] is reported as 2%, the “Acinetobacter baumannii DSM 30008 MIC” value [2] is reported as 0.25 µg/mL and the “Acinetobacter baumannii 872842 MIC” value [3] is reported as 0.25 µg/mL. The “Escherichia coli 926415 MIC” value [4] was 0.25 µg/mL, the “Klebsiella pneumoniae 968733 MIC” value [5] was 1 µg/mL and the “Escherichia coli ATCC 25922 MIC” value [6] was 0.25 µg/mL. For the same compound, the “Klebsiella pneumoniae SSI #3010 MIC” value [7] was 1 µg/mL and the “Pseudomonas aeruginosa ATCC 27853 MIC” value [8] was 1 µg/mL.

`CC(=O)N[C@@H](Cc1c[nH]c2ccccc12)C(=O)N[C@H]1CSSC[C@@H](C(=O)N[C@@H](CCCN)C(=O)N[C@@H](CCN)C(=O)N[C@@H](CCN)C(=O)N[C@H]2CCNC(=O)[C@H]([C@@H](C)O)NC(=O)[C@H](CCN)NC(=O)[C@H](CCN)NC(=O)[C@H](CC(C)C)NC(=O)[C@@H](Cc3ccccc3)NC(=O)[C@H](CCN)NC2=O)NC(=O)[C@H](Cc2ccc(O)cc2)NC(=O)[C@H](CO)NC(=O)[C@H](CC(C)C)NC(=O)[C@@H]2CCCN2C(=O)[C@H]2CCCN2C(=O)[C@H](CO)NC(=O)[C@@H](C)NC(=O)[C@H](C(C)(C)C)NC1=O` [Ex. 112] (Ac-WC[Tle][dA]S[dP]PLSYC[Orn][Dab][Dab][Dab][Dab][dF]L[Dab][Dab]T; disulfide 2-11; lactam 15-C) was tested, and the “Hemolysis at 100 μg/mL” value [1] was 1%, the “Acinetobacter baumannii DSM 30008 MIC” value [2] was 1 µg/mL and the “Acinetobacter baumannii 872842 MIC” value [3] was 1 µg/mL. The “Escherichia coli 926415 MIC” value [4] was 1 µg/mL, the “Klebsiella pneumoniae 968733 MIC” value [5] was 0.5 µg/mL and the “Escherichia coli ATCC 25922 MIC” value [6] was 1 µg/mL. The “Klebsiella pneumoniae SSI #3010 MIC” value [7] was 0.5 µg/mL and the “Pseudomonas aeruginosa ATCC 27853 MIC” value [8] was 4 µg/mL.

In the case of `CC(=O)N[C@@H](Cc1c[nH]c2ccccc12)C(=O)N[C@H]1CSSC[C@@H](C(=O)N[C@@H](CCCN)C(=O)N[C@H](C(=O)N[C@@H](CCN)C(=O)N[C@H]2CCNC(=O)[C@H]([C@@H](C)O)NC(=O)[C@H](CCN)NC(=O)[C@H](CCN)NC(=O)[C@H](CC(C)C)NC(=O)[C@@H](Cc3ccccc3)NC(=O)[C@H](CCN)NC2=O)[C@@H](C)O)NC(=O)[C@H](CC2CCCCC2)NC(=O)[C@H](Cc2c[nH]cn2)NC(=O)[C@H](CC(C)C)NC(=O)[C@@H]2CCCN2C(=O)[C@H]2CCCN2C(=O)[C@H]([C@H](C)O)NC(=O)[C@H](C)NC(=O)[C@H](C(C)(C)C)NC1=O` [Ex. 113] (Ac-WC[Tle]A[aThr][dP]PLH[Cha]C[Orn]T[Dab][Dab][Dab][dF]L[Dab][Dab]T; disulfide 2-11; lactam 15-C), the “Hemolysis at 100 μg/mL” value [1] is reported as 5%, the “Acinetobacter baumannii DSM 30008 MIC” value [2] is reported as 1 µg/mL and the “Acinetobacter baumannii 872842 MIC” value [3] is reported as 0.25 µg/mL. The “Escherichia coli 926415 MIC” value [4] was 0.5 µg/mL, the “Klebsiella pneumoniae 968733 MIC” value [5] was 4 µg/mL and the “Escherichia coli ATCC 25922 MIC” value [6] was 1 µg/mL. For the same compound, the “Klebsiella pneumoniae SSI #3010 MIC” value [7] was 2 µg/mL and the “Pseudomonas aeruginosa ATCC 27853 MIC” value [8] was 1 µg/mL.

For `CC(C)C[C@@H]1NC(=O)[C@@H](Cc2ccccc2)NC(=O)[C@H](CCN)NC(=O)[C@@H](NC(=O)[C@H](CCN)NC(=O)[C@@H](NC(=O)[C@H](CCN)NC(=O)[C@@H]2CSSC[C@H](NC(=O)[C@@H](N)Cc3c[nH]c4ccccc34)C(=O)N[C@@H](C(C)(C)C)C(=O)N[C@@H](C)C(=O)N[C@@H](CO)C(=O)N3CCCC[C@@H]3C(=O)N3CCC[C@H]3C(=O)N[C@@H](CC(C)C)C(=O)N[C@@H](CO)C(=O)N[C@@H](Cc3ccc(O)cc3)C(=O)N2)[C@@H](C)O)CCNC(=O)[C@H]([C@@H](C)O)NC(=O)[C@H](CCN)NC(=O)[C@H](CCN)NC1=O` [Ex. 114] (H-WC[Tle]AS[dPip]PLSYC[Dab]T[Dab][Dab][Dab][dF]L[Dab][Dab]T; disulfide 2-11; lactam 15-C), the “Hemolysis at 100 μg/mL” value [1] was 6%, the “Acinetobacter baumannii DSM 30008 MIC” value [2] was 0.5 µg/mL and the “Acinetobacter baumannii 872842 MIC” value [3] was 0.125 µg/mL. For the same compound, the “Escherichia coli 926415 MIC” value [4] was 0.0625 µg/mL, the “Klebsiella pneumoniae 968733 MIC” value [5] was 0.5 µg/mL and the “Escherichia coli ATCC 25922 MIC” value [6] was 0.125 µg/mL. The “Klebsiella pneumoniae SSI #3010 MIC” value [7] was 0.25 µg/mL and the “Pseudomonas aeruginosa ATCC 27853 MIC” value [8] was 0.5 µg/mL.

With `CC(=O)N[C@@H](Cc1c[nH]c2ccccc12)C(=O)N[C@H]1CSSC[C@@H](C(=O)N[C@@H](CCN)C(=O)N[C@@H](CCN)C(=O)N[C@@H](CCN)C(=O)N[C@H]2CCNC(=O)[C@H]([C@@H](C)O)NC(=O)[C@H](CCN)NC(=O)[C@H](CCN)NC(=O)[C@H](CC(C)C)NC(=O)[C@@H](Cc3ccccc3)NC(=O)[C@H](CCN)NC2=O)NC(=O)[C@H](Cc2ccc(O)cc2)NC(=O)[C@H]([C@@H](C)O)NC(=O)[C@H](CC(C)C)NC(=O)[C@H](CCCNC(=N)N)NC(=O)[C@H]2CCCN2C(=O)[C@H](C(C)C)NC(=O)[C@H]([C@@H](C)O)NC(=O)[C@H](C(C)C)NC1=O` [Ex. 115] (Ac-WCVTV[dP]RLTYC[Dab][Dab][Dab][Dab][Dab][dF]L[Dab][Dab]T; disulfide 2-11; lactam 15-C) the “Hemolysis at 100 μg/mL” value [1] was 1%, the “Acinetobacter baumannii DSM 30008 MIC” value [2] was 0.5 µg/mL and the “Acinetobacter baumannii 872842 MIC” value [3] was 0.5 µg/mL. The “Escherichia coli 926415 MIC” value [4] was 0.5 µg/mL, the “Klebsiella pneumoniae 968733 MIC” value [5] was 1 µg/mL and the “Escherichia coli ATCC 25922 MIC” value [6] was 0.5 µg/mL. The “Klebsiella pneumoniae SSI #3010 MIC” value [7] was 0.5 µg/mL and the “Pseudomonas aeruginosa ATCC 27853 MIC” value [8] was 0.5 µg/mL.

`CC(=O)N[C@@H](Cc1c[nH]c2ccccc12)C(=O)N[C@H]1CSSC[C@@H](C(=O)N[C@@H](CCCN)C(=O)N[C@H](C(=O)N[C@@H](CCN)C(=O)N[C@H]2CCNC(=O)[C@H]([C@@H](C)O)NC(=O)[C@H](CCN)NC(=O)[C@H](CCN)NC(=O)[C@H](CC(C)C)NC(=O)[C@@H](Cc3ccccc3)NC(=O)[C@H](CCN)NC2=O)[C@@H](C)O)NC(=O)[C@H](Cc2ccc(O)cc2)NC(=O)CNC(=O)[C@H](CC(C)C)NC(=O)[C@@H]2CCCN2C(=O)[C@H]2CCCN2C(=O)[C@H](CO)NC(=O)[C@H](CN)NC(=O)[C@H](C(C)(C)C)NC1=O` [Ex. 117] (Ac-WC[Tle][Dap]S[dP]PLGYC[Orn]T[Dab][Dab][Dab][dF]L[Dab][Dab]T; disulfide 2-11; lactam 15-C) was tested, and the “Hemolysis at 100 μg/mL” value [1] was under 1%, the “Acinetobacter baumannii DSM 30008 MIC” value [2] was 0.25 µg/mL and the “Acinetobacter baumannii 872842 MIC” value [3] was 0.125 µg/mL. For the same compound, the “Escherichia coli 926415 MIC” value [4] was 0.25 µg/mL, the “Klebsiella pneumoniae 968733 MIC” value [5] was 2 µg/mL and the “Escherichia coli ATCC 25922 MIC” value [6] was 0.5 µg/mL. For the same compound, the “Klebsiella pneumoniae SSI #3010 MIC” value [7] was 1 µg/mL and the “Pseudomonas aeruginosa ATCC 27853 MIC” value [8] was 2 µg/mL.

— patent US10829520B2, “Beta-hairpin peptidomimetics” (POLYPHOR AG, priority 2015, dated 2020)
